According to patent publication US12479847B2 (DANA-FARBER CANCER INSTITUTE, INC., priority 2019, dated 2025):

Key:
Assay in all cases: KINOMEscan (ScanMAX) kinase profiling
Format in all cases: binding
panel of 468 kinases [1] = target: T1, panel of 468 kinases (Homo sapiens, UniProt O75716); conditions: STK16; 1 μM; read-out: % control
T1 construct: purchased KINOMEscan (ScanMAX) service

panel of 468 kinases [2] = target: T2, panel of 468 kinases (Homo sapiens, UniProt P19525); conditions: PRKR; 1 μM; read-out: % control
T2 construct: purchased KINOMEscan (ScanMAX) service
T2 sequence (P19525 whole entry): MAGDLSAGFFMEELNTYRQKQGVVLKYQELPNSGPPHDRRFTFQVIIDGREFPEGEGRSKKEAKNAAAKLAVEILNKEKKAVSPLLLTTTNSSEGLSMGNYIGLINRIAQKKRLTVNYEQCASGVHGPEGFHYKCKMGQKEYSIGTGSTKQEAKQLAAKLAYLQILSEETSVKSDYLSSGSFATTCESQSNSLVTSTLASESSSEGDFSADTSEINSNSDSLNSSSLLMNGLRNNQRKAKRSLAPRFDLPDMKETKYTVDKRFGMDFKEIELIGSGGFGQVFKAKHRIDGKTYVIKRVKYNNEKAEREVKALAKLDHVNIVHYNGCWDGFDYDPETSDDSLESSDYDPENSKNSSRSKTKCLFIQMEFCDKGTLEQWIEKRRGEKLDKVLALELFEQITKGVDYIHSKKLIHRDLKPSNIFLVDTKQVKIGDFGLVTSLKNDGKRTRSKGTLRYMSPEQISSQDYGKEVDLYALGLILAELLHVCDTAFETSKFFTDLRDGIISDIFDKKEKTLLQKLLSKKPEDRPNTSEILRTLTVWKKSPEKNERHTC

panel of 468 kinases [3] = target: T3, panel of 468 kinases (Homo sapiens, UniProt P33981); conditions: TTK; 1 μM; read-out: % control
T3 construct: purchased KINOMEscan (ScanMAX) service
T3 sequence (P33981 1-857): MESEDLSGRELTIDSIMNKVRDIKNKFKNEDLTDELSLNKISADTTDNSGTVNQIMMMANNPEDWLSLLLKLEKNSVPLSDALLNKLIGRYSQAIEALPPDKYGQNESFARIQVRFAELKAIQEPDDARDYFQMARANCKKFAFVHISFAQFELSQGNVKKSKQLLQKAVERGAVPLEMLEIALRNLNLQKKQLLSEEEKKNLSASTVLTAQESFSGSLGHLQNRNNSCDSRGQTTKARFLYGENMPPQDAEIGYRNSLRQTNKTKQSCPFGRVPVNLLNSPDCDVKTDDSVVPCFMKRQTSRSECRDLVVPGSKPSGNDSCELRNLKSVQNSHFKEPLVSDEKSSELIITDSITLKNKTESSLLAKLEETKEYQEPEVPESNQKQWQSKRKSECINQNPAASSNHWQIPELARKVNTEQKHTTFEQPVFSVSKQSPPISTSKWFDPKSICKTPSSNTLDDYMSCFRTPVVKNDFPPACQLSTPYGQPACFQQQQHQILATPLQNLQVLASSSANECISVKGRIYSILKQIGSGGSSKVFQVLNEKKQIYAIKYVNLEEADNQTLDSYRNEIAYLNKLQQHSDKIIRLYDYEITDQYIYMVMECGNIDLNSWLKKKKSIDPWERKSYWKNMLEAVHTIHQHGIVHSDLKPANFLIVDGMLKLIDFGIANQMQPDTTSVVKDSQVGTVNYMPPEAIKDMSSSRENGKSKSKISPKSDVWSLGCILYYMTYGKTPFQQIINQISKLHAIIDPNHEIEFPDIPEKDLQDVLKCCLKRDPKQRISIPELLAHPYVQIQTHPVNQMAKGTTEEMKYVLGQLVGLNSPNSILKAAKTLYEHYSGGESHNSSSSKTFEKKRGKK

panel of 468 kinases [4] = target: T4, panel of 468 kinases (Homo sapiens, UniProt P80192); conditions: MLK1; 1 μM; read-out: % control
T4 construct: purchased KINOMEscan (ScanMAX) service
T4 sequence (P80192 whole entry): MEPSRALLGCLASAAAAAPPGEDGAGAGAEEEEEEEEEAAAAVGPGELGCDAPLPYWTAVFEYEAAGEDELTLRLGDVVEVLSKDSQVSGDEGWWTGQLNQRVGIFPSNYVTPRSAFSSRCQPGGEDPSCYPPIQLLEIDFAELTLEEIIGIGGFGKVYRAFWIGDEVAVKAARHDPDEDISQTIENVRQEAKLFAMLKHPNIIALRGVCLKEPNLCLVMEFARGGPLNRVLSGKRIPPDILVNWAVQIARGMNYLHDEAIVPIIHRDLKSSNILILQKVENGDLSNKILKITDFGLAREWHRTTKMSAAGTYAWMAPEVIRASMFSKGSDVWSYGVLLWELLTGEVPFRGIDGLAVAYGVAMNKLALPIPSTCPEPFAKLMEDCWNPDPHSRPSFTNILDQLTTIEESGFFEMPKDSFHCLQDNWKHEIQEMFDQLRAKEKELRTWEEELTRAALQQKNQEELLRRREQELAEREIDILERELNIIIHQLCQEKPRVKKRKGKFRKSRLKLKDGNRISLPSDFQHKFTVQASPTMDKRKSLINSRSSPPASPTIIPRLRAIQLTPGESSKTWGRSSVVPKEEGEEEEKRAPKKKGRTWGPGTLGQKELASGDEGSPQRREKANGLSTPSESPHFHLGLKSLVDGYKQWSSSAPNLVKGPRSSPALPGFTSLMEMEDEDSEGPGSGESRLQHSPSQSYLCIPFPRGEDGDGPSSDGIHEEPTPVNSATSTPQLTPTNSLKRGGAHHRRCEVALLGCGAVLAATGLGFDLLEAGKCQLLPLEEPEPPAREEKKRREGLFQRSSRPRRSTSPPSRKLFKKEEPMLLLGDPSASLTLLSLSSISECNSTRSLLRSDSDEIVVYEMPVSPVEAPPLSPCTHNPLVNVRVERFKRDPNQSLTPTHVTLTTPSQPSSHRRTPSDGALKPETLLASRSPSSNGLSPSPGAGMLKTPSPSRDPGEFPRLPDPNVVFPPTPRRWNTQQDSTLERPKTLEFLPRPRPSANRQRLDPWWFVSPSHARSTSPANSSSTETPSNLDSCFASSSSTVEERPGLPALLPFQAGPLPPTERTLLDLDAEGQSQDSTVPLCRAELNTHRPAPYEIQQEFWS

panel of 468 kinases [5] = target: T5, panel of 468 kinases (Homo sapiens, UniProt Q04771); conditions: ACVR1; 1 μM; read-out: % control
T5 construct: purchased KINOMEscan (ScanMAX) service
T5 sequence (Q04771 21-509): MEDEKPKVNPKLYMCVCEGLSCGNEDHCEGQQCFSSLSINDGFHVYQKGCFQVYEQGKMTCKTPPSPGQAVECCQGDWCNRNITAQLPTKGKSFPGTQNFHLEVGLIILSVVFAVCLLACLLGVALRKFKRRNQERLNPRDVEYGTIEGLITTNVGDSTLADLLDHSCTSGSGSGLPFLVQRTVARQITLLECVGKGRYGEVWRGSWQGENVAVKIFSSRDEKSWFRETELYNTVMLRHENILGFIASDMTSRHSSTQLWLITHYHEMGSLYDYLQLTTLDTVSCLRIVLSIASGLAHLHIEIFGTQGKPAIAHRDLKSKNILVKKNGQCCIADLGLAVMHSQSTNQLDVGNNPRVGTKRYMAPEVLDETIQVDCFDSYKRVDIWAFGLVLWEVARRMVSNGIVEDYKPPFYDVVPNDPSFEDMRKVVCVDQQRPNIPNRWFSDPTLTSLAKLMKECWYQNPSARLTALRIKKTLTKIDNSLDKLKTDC

panel of 468 kinases [6] = target: T6, panel of 468 kinases (Homo sapiens, UniProt Q6XUX3); conditions: RIPK5; 1 μM; read-out: % control
T6 construct: purchased KINOMEscan (ScanMAX) service
T6 sequence (Q6XUX3 1-929): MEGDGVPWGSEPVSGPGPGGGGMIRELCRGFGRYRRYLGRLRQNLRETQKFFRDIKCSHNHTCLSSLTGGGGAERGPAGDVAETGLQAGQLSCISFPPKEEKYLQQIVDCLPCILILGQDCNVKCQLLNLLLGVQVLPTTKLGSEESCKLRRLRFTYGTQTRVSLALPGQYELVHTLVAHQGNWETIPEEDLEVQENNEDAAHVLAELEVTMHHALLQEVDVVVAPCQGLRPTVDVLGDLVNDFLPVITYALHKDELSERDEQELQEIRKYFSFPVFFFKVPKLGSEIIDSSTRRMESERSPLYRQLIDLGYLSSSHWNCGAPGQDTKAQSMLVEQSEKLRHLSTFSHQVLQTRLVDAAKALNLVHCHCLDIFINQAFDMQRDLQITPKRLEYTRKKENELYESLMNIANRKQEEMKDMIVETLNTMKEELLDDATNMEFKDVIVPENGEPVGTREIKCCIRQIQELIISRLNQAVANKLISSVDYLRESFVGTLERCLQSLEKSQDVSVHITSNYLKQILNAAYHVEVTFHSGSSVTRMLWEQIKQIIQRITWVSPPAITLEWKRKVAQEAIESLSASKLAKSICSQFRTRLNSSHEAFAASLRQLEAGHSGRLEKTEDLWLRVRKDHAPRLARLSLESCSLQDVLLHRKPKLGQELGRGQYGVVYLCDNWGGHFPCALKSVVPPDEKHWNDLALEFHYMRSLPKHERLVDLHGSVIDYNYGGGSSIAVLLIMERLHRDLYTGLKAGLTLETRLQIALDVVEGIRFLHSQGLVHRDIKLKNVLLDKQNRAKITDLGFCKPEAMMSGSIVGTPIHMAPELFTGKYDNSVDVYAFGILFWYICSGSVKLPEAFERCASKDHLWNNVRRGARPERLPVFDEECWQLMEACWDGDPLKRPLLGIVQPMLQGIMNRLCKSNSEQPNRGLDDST

panel of 468 kinases [7] = target: T7, panel of 468 kinases (Homo sapiens, UniProt Q9UQM7); conditions: CAMK2A; 1 μM; read-out: % control
T7 construct: purchased KINOMEscan (ScanMAX) service
T7 sequence (Q9UQM7 whole entry): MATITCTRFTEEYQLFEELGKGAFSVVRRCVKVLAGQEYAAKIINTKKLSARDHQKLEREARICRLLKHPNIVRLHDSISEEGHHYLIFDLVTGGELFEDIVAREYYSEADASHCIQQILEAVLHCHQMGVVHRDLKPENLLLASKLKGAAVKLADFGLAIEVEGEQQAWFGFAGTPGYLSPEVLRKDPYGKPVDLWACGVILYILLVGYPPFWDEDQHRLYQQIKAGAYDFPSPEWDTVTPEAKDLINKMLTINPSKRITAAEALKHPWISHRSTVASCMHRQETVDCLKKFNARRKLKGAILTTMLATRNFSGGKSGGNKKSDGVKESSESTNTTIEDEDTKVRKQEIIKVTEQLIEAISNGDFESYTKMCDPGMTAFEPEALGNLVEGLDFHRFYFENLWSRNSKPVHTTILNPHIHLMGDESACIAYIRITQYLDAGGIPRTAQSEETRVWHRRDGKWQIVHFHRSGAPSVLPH

T1 sequence (O75716 whole entry): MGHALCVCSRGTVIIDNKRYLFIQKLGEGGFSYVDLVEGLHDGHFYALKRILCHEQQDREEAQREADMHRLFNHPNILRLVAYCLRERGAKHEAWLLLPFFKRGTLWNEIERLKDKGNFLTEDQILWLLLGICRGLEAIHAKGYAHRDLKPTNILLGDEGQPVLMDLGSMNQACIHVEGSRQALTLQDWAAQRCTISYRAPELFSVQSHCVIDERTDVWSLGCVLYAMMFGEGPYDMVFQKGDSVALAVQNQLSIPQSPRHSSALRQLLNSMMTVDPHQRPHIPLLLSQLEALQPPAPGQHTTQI

Structure (SMILES) | remaining binding at 1 µM (panel of 468 kinases [1]) [%] | remaining binding at 1 µM (panel of 468 kinases [2]) [%] | remaining binding at 1 µM (panel of 468 kinases [3]) [%] | remaining binding at 1 µM (panel of 468 kinases [4]) [%] | remaining binding at 1 µM (panel of 468 kinases [5]) [%] | remaining binding at 1 µM (panel of 468 kinases [6]) [%] | remaining binding at 1 µM (panel of 468 kinases [7]) [%]
CNc1nc(Nc2ccc(C(=O)N3CCC(N4CCOCC4)CC3)c3c2OCO3)nc2[nH]cc(Cl)c12 [Compound 75, (7-((5-chloro-4-(methylamino)-7H-pyrrolo[2,3-d]pyrimidin-2-yl)amino)benzo[d][1,3]dioxol-4-yl)(4-morpholinopiperidin-1-yl)methanone] | 71 | 100 | 0.6 | 91 | 100 | 9.9 | 70
CNc1nc(Nc2ccc(S(=O)(=O)N3CCC(N4CCOCC4)CC3)cc2OC)nc2[nH]cc(Cl)c12 [Compound 12, 5-chloro-N2-(2-methoxy-4-((4-morpholinopiperidin-1-yl)sulfonyl)phenyl)-N4-methyl-7H-pyrrolo[2,3-d]pyrimidine-2,4-diamine] | 100 | 100 | 1 | 100 | 100 | 23 | 100
CNc1nc(Nc2ccc(P3(=O)CCN(C4CCOCC4)CC3)cc2OC)nc2[nH]cc(Cl)c12 [Compound 77, 4-(4-((5-chloro-4-(methylamino)-7H-pyrrolo[2,3-d]pyrimidin-2-yl)amino)-3-methoxyphenyl)-1-(tetrahydro-2H-pyran-4-yl)-1,4-azaphosphinane 4-oxide] | 93 | 100 | 0.5 | 98 | 100 | 20 | 88
